Test results: patent EP4389827A1, “AMINOGLYCOSIDE-LINKED PHOTOSENSITIZERS” (Centre National de la Recherche Scientifique, priority 2022, dated 2024)
Where two headings read alike, the source gives them in different places.

How the values were obtained:
C. albicans SC5314 = experiment: Minimal inhibitory concentration, with or without 660 nm irradiation; format: cell-based; details: Candida albicans, SC5314, light or radiation study, 18 h, read-out: MIC
Procedure: (§1) Acinetobacter baumannii DSM30011, Bacillus subtilis 168, Pseudomonas aeruginosa PA14, P. aeruginosa PAO1, Staphylococcus aureus Mu50, S. aureus Newman and S. aureus USA300 were all grown in MHB-CA at 37°C with an agitation of 180 rpm. Candida albicans SC5314 was grown in yeast extract peptone dextrose broth at 35°C with an agitation of 180 rpm.
(§2) Minimal inhibitory concentrations (MICs) for selected bacteria were investigated according to the EUCAST guidelines. Serial dilutions of the compounds, photosensitizers and aminoglycosides were made in MHB-CA in 384-well plates. Stationary-phase cells were diluted in MHB-CA to have a final concentration of 5.5 × 10^5 CFU/mL. Samples were incubated in the dark for 20 minutes at 37°C and either irradiated at 660 nm for 30 minutes with a LED device or kept in the dark. Irradiated samples received a total of 168 mJ/mm^2. Plates were then incubated at 37°C for 18 hours and MICs were evaluated visually. Triplicates were done and the synergy, or fractional inhibitory concentration (FIC), was calculated according to Doern et al., 2014: FIC = (MIC of AB)/(MIC of A) + (MIC of AB)/(MIC of B) [formula]

S. aureus USA300 = experiment: Minimal inhibitory concentration (EUCAST), with or without 660 nm irradiation; format: cell-based; details: Staphylococcus aureus, USA300, light or radiation study, 18 h
Procedure: as §1, §2

B. subtilis 168 = experiment: as above; format: cell-based, Bacillus subtilis; details: read-out: MIC
Procedure: as §1, §2

E. coli KanR = experiment: as above; format: cell-based
Procedure: as §2

E. coli pET-29 = experiment: as above; format: cell-based
Procedure: as §2

K. pneumoniae LM21 = experiment: as above; format: cell-based; details: read-out: MIC
Procedure: as §2

[1] = tested on: A. baumannii DSM30011 persister cells; experiment: Antibacterial photodynamic therapy on persister cells; format: cell-based, Acinetobacter baumannii; details: persister cells (200 µM neomycin, 24 hours); aPDT, irradiated, 5 J/mm^2
Procedure: Persister cells were obtained after incubation with 200 µM of neomycin for 24 hours.

[2] = tested on: P. aeruginosa PA14 persister cells; experiment: as above; format: cell-based, Pseudomonas aeruginosa; details: persister cells (1 mM tobramycin, 24 hours); aPDT, 5 J/mm^2
Procedure: In P. aeruginosa PA14, persister cells were obtained by treating with 1 mM of tobramycin for 24 hours. The effect of aPDT was not as impactful (Figures 9a, 9b), but there was a slight drop of 1.6 and 1.1 log10 CFU/mL for Neo-Ce6 and Tobra-Ce6, respectively.

P. aeruginosa PA14 = experiment: Antibacterial photodynamic therapy on planktonic cells (CFU count); format: cell-based; details: Pseudomonas aeruginosa, PA14, light or radiation study, 0.5 h, irradiated, 5 J/mm^2 (Figure 5a), read-out: Survival drop
Procedure: as §1
(§3) Cells were brought to stationary phase by incubating them in MHB-CA for at least 18 hours at 37°C with 180 rpm and diluted to an optical density of 1.0 just before the experiment. Cells were incubated for 20 minutes with either the compounds, photosensitizers alone, or aminoglycosides alone. Unless stated otherwise, a concentration of 10 µM was used for all experiments and samples were irradiated for 30 minutes at 660 nm with the Solis-660C lamp from ThorLabs, receiving a total of 5 J/mm^2. After illumination, cells were washed with phosphate-buffered saline (PBS) 1X, serially diluted and plated on Mueller-Hinton agar. The next day, colony forming units (CFUs) were counted.

P. aeruginosa PAO1 = experiment: as above; format: cell-based; details: Pseudomonas aeruginosa, PAO1, light or radiation study, 0.5 h, 10 µM, irradiated, 5 J/mm^2 (Figure 5c), read-out: Survival drop
Procedure: as §1, §3

[3] = tested on: S. aureus Newman persister cells; experiment: Antibacterial photodynamic therapy on persister cells; format: cell-based, Staphylococcus aureus; details: persister cells (24 hours, 1 mM neomycin); irradiated, 5 J/mm^2 (Figure 7a)
Procedure: Persister plateau and AG concentration varied from one species to another. In S. aureus USA300, a stable plateau was obtained following 6 hours of incubation with 2 mM of neomycin. […] This control is crucial to make sure that a persister state has been achieved. […] As there are no significant differences between irradiated and non-irradiated samples, however, the production of singlet oxygen may not be the factor leading to cell death. In S. aureus Newman, cells were treated for 24 hours with 1 mM of neomycin. […] Although this synergy does exist, like in S. aureus USA300, there is no significant difference in survival for irradiated and non-irradiated samples, except for Ce6.

[4] = with (+) irradiation, 660 nm 30 minutes, 168 mJ/mm^2

## C=Cc1c(C)c2cc3nc(c(CC(=O)O)c4[nH]c(cc5nc(cc1[nH]2)C(C)=C5CC)c(C)c4C(=O)O)[C@@H](CCC(=O)O)[C@@H]3C [Ce6, chlorin e6]
C. albicans SC5314; [4]
  MIC: 32 µM
C. albicans SC5314; without (-) irradiation
  MIC: > 64 µM
S. aureus USA300; [4]
  MIC: 16 to 32 µM
S. aureus USA300; without (-) irradiation
  MIC: > 64 µM
B. subtilis 168; Bacillus subtilis, 168, light or radiation study, 18 h, without (-) irradiation
  MIC: > 64 µM
B. subtilis 168; [4]
  MIC: > 64 µM
E. coli KanR; Escherichia coli, light or radiation study, 18 h
  MIC: > 64 µM
E. coli KanR; [4]
  MIC: > 64 µM
E. coli pET-29; Escherichia coli, PET29, light or radiation study, 18 h, without (-) irradiation
  MIC: > 64 µM
E. coli pET-29; [4]
  MIC: > 64 µM
K. pneumoniae LM21; Klebsiella pneumoniae, LM21, light or radiation study, 18 h, without (-) irradiation
  MIC: > 64 µM
K. pneumoniae LM21; [4]
  MIC: > 64 µM

## C=Cc1c(C)c2cc3nc(c(CC(=O)O)c4[nH]c(cc5nc(cc1[nH]2)C(C)=C5CC)c(C)c4C(=O)O)[C@@H](CCC(=O)NC[C@H]1O[C@H](O[C@@H]2[C@@H](O)[C@H](O[C@H]4O[C@H](CN)[C@@H](O)C[C@H]4N)[C@@H](N)C[C@H]2N)[C@H](O)[C@@H](N)[C@@H]1O)[C@@H]3C [Tobra-Ce6]
[1]
  drop: 1.8 log10 CFU/mL
S. aureus USA300; [4]
  MIC: 2 to 4 µM
S. aureus USA300; without (-) irradiation
  MIC: > 16 µM
[2]
  drop: 1.1 log10 CFU/mL
P. aeruginosa PA14
  log reduction at 10 µM: 2.6
P. aeruginosa PAO1
  log reduction at 10 µM: 3.5
[3]
  persister cell survival (in words): significantly lower than in cells treated with Ce6 alone
